What all share (assay): inhibition of tumour cell growth, NCI panel, 48 h
Assay [1] deals with SNB-75 CNS.
For assay [2], the system named is HCT-116 colon.
The test system of assay [3] is HOP-62 NSCLC.
In assay [4] the test system is OVCAR-8 ovarian.
Assay [5] deals with U251 CNS.
For assay [6], the system named is UACC-257 melanoma.
Assay [7] has as its system RXF 393 renal.
Assay [8] has as its system SF-295 CNS.
Assay [9] deals with NCI-H460 lung.
Assay [10] has as its system SR leukemia.

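48-hour exposure; five concentrations; linearly interpolated endpoints. Abbreviation: GI50, concentration required for 50% inhibition of growth. TGI: total growth inhibition.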

As to `COc1nc2c(OC)cccc2c(OC)c1C=O`, the TGI in assay [1], in [2], in assay [3], in [4], in assay [5] and in [6] was greater than 100 µM in each case. The TGI in assay [7], in [8] and in assay [9] was greater than 100 µM in each case.
For `COc1ccc(OCC(=O)O)c2c1CCC(C(C)C)C2=O` (stereo unspecified), the TGI in assay [2], in assay [3], in [4], in assay [5], in assay [6] and in assay [8] was greater than 100 µM throughout. In addition, the TGI in [9] is greater than 100 µM.
Consider `Cn1ccnc1C(=O)/C=C/c1ccc(CC(=O)Nc2ccc(Cl)cc2)cc1`, for which the GI50 in assay [1] was 1.9 µM; in assay [2], 1.31 µM; in [3] it was 2.16 µM; in assay [4] it was 3.49 µM; in assay [5], 1.1 µM; in [6], greater than 25 µM. The GI50 in assay [7] was 2.97 µM; in assay [8] it was 7.39 µM; in assay [9], 1.58 µM. For the same compound, the TGI in [1], in [2], in [3], in [4], in assay [5] and in assay [6] was greater than 25 µM in each case. In addition, the TGI in assay [7], in assay [8] and in [9] was greater than 25 µM throughout.
For `CN/N=C(/Cc1occc(=O)c1O)C(=O)Nc1ccc(C)c(C)c1`, the TGI in assay [2], in assay [3], in [4], in assay [5], in assay [10] and in assay [6] was greater than 100 µM each time. In addition, the TGI in assay [8] and in [9] was greater than 100 µM each time.
As for `COc1ccc(CN2C(=O)/C(=C\c3cc(OC)c(OC)c(OC)c3)c3cc(OC)ccc32)cc1`, the GI50 in [1] is 2.17 µM; in [2], 1.63 µM; in [3] it was 2.37 µM; in assay [4] it was 2.32 µM; in [5], 1.38 µM; in assay [6] it was 1.94 µM. The GI50 is 1.63 µM in assay [7], 3.26 µM in assay [8] and 1.91 µM in assay [9]. Besides, the TGI in assay [1] was 6.62 µM; in assay [2] it was 3.05 µM; in assay [3], 4.89 µM; in assay [4], greater than 23.9 µM; in [5], 2.67 µM; in assay [6] it was 4.94 µM. The TGI is 3.47 µM in assay [7], greater than 31.4 µM in [8] and 3.83 µM in assay [9].
Take `COC(=O)C1(C)C=C(Nc2ccccc2)C(=O)N1c1ccccc1` (stereo unspecified): the TGI in assay [2], in assay [3], in assay [4], in assay [5], in [6] and in [7] was greater than 100 µM each time. For the same compound, the TGI in [8] and in assay [9] was greater than 100 µM each time.
On to `C/C(CN1C(=O)c2ccccc2C1=O)=N\NS(=O)(=O)c1cccc([N+](=O)[O-])c1`, for which the TGI in assay [1], in [2], in assay [3], in [4], in assay [5] and in assay [6] was greater than 100 µM in each case. Further, the TGI in assay [7], in assay [8] and in [9] was greater than 100 µM in each case.
Turning to `Cc1ccc(C)c(NC(=O)C(=O)C2C(=O)C3=C(CC2(C)C)Nc2ccccc2S3)c1` (stereo unspecified), the TGI in assay [1], in [2], in assay [3], in assay [4], in [5] and in [6] was greater than 100 µM each time. Besides, the TGI in assay [7], in [8] and in assay [9] was greater than 100 µM each time.
`O=C1c2ccccc2-c2c1c1ccccc1c(=O)n2Cc1ccco1`: the TGI in assay [1], in assay [2], in assay [3], in [4], in [5] and in [10] was greater than 100 µM in each case. Further, the TGI in assay [6] and in assay [8] was greater than 100 µM each time.
Regarding `Oc1cccc2c1NC1=C(CCC/C1=C\c1ccccc1)C2`, the TGI in [2], in [3], in assay [4], in assay [5], in assay [10] and in assay [6] was greater than 100 µM in each case. The TGI in assay [8] and in assay [9] was greater than 100 µM in each case.
As to `O=S(=O)([O-])[O-].[OH3+].[OH3+].[OH3+].[Ru+2].c1ccccc1`, the GI50 in [1], in [2], in assay [4], in assay [5], in [6] and in assay [8] was greater than 100 µM throughout. Besides, the GI50 in [9] is greater than 100 µM. The TGI in [1], in [2], in assay [4], in [5], in assay [6] and in assay [8] was greater than 100 µM throughout. In assay [9], the TGI is greater than 100 µM.
On to `CC(Cn1c2c3ccccc3ccc2c2oc(=O)c3ccccc3c21)N(C)C` (stereo unspecified), for which the TGI in [1], in assay [2], in assay [4], in [5], in [10] and in assay [6] was greater than 100 µM throughout. For the same compound, the TGI in assay [8] and in assay [9] was greater than 100 µM in each case.
Take `O=C1C=CC(=O)c2c1ccc1c3ccccc3n(-c3ccccn3)c21`: the TGI in assay [1] is greater than 100 µM; in [2], 25.9 µM; in assay [4] it was greater than 100 µM; in [5], greater than 100 µM; in [6] it was 37.3 µM; in assay [8], greater than 100 µM. Moreover, the TGI in assay [9] was greater than 100 µM.

For the origin of these results see PubChem BioAssay (NCI).
